Numbers after ± are expanded uncertainties.
Details: 101.33 kPa, Liquid, buoyancy

Row | Structure (SMILES) | mass density (298.2 K) [kg/m3] | mass density (323.2 K) [kg/m3]
1 | Cc1cc(C)cc(C)c1 [1,3,5-trimethylbenzene] | 859.7 ± 2.9 | 
2 | Cc1ccccc1O [2-methylphenol] |  | 1018.8 ± 3.2
3 | Cc1cccc(O)c1 [3-methylphenol] |  | 1009.2 ± 3.1

More lines, now with the values ahead:

Row | mass density (298.2 K) [kg/m3] | mass density (323.2 K) [kg/m3] | Structure (SMILES)
4 | 806.37 ± 2.8 |  | CCCCC(C)=O [2-hexanone]
5 |  | 1011.3 ± 3.2 | Cc1ccc(O)cc1 [4-methylphenol]
6 | 881.51 ± 2.9 |  | CCCOC(C)=O [propyl ethanoate]

Reference: the NIST ThermoML archive (doi:10.1016/j.jct.2018.07.014)
